Patent US10463644B2, “Uses of sesquiterpene lactone compounds and their derivatives in drugs preparation” (ACCENDATECH, priority 2013, dated 2019)

Columns and labels:
Assay type in all cases: in vivo
[1] = system: TNF-α secreted by synoviocyte; assay: Content of TNF-α in culture supernatant of synoviocyte of RA model rats given test compound; details: rat RA model, dose 30 mg/kg.2d, normal control 0.38 ± 0.027, NaCl 0.74 ± 0.098
From the text: (§1) Take Compound 1-50 prepared as per the method according to the present invention and employ the method provided in Reference to prepare model, group drugs and prepare culture supernatant of rat synoviocyte.
(§2) Employ the method provided in Reference to investigate the effects of the test compounds on the synoviocyte to secrete TNF-α and PGE2. Employ the method provided in Reference to investigate the effects of the test compounds on the synoviocyte to secrete IL-1β.
(§3) The experimental data of the test compound 1-50 at a dose of 30 mg/kg.2d as well as the normal control and NaCl group are as follows: […]

[2] = system: IL-1β secreted by synoviocyte; assay: Content of IL-1β in culture supernatant of synoviocyte of RA model rats given test compound; details: rat RA model, dose 30 mg/kg.2d, normal control 0.16 ± 0.034, NaCl 0.49 ± 0.136
From the text: as §1, §2, §3

[3] = system: PGE2 secreted by synoviocyte; assay: Content of PGE2 in culture supernatant of synoviocyte of RA model rats given test compound; details: rat RA model, dose 30 mg/kg.2d, normal control 8.34 ± 1.29, NaCl 32.44 ± 10.32
From the text: as §1, §2, §3

Structure (SMILES) | Content of TNF-α in culture supernatant of synoviocyte (x ± s) [1] | Content of IL-1β in culture supernatant of synoviocyte (x ± s) [2] | Content of PGE2 in culture supernatant of synoviocyte (x ± s) [3] | Content of TNF-α in culture supernatant of synoviocyte (x ± s) ([1]; 30 mg/kg) | Content of IL-1β in culture supernatant of synoviocyte (x ± s) ([2]; 30 mg/kg) | Content of PGE2 in culture supernatant of synoviocyte (x ± s) ([3]; 30 mg/kg)
COC[C@@H]1C(=O)O[C@H]2[C@H]1CCC1(CC1)[C@@H]1CCC3(CC3)[C@H]21 [Compound 30] | 0.65 ± 0.057 ng/mL | 0.38 ± 0.049 ng/mL | 25.37 ± 4.21 ng/mL |  |  | 
O=C1O[C@H]2[C@@H](CCC3(CC3)[C@@H]3CCC4(CC4)[C@H]23)[C@@H]1CNCc1ccccc1 [Compound 33] | 0.63 ± 0.054 ng/mL | 0.41 ± 0.052 ng/mL | 26.64 ± 2.67 ng/mL |  |  | 
CC1=C2CC[C@@](C)(O)[C@@H]2[C@H]2OC(=O)[C@@H](CN(C)C)[C@@H]2CC1 [Compound 22] |  |  |  | 0.61 ± 0.082 ng/mL | 0.34 ± 0.038 ng/mL | 24.69 ± 4.19 ng/mL
O=C1O[C@H]2[C@@H](CCC3(CC3)[C@@H]3CCC4(CC4)[C@H]23)[C@@H]1Cn1cc(-c2ccccc2)nn1 [Compound 43] | 0.55 ± 0.045 ng/mL | 0.43 ± 0.062 ng/mL | 24.64 ± 3.95 ng/mL |  |  | 
O=C1O[C@H]2[C@@H](CCC3(CC3)[C@@H]3CCC4(CC4)[C@H]23)[C@@H]1CSc1ccccc1 [Compound 31] | 0.62 ± 0.056 ng/mL | 0.39 ± 0.051 ng/mL | 24.41 ± 1.65 ng/mL |  |  | 
C=C1C(=O)OC2C1CCC(C)=C1CCC(C)(OC(=O)C=C(C)C)C12 (stereo not drawn) [Compound 16] | 0.57 ± 0.073 ng/mL | 0.34 ± 0.039 ng/mL | 27.61 ± 4.21 ng/mL |  |  | 
C=C1C(=O)OC2C1CCC(C)=C1CCC(C)(OC(=O)CCc3ccccc3)C12 (stereo not drawn) [Compound 20] | 0.58 ± 0.045 ng/mL | 0.34 ± 0.056 ng/mL | 27.38 ± 1.39 ng/mL |  |  | 
C=C1C(=O)OC2C1CCC(C)=C1CCC(C)(OC(=O)CCC)C12 (stereo not drawn) [Compound 4] | 0.56 ± 0.064 ng/mL | 0.42 ± 0.064 ng/mL | 24.49 ± 2.67 ng/mL |  |  | 
O=C1O[C@H]2[C@@H](CCC3(CC3)[C@@H]3CCC4(CC4)[C@H]23)[C@@H]1CN1CCCC1 [Compound 39] | 0.52 ± 0.056 ng/mL | 0.34 ± 0.095 ng/mL | 28.35 ± 2.15 ng/mL |  |  | 
O=C1O[C@H]2[C@@H](CCC3(CC3)[C@@H]3CCC4(CC4)[C@H]23)[C@@H]1CNCCO [Compound 34] | 0.54 ± 0.067 ng/mL | 0.35 ± 0.059 ng/mL | 24.61 ± 3.24 ng/mL |  |  | 
C=C1C(=O)OC2C1CCC(C)=C1CCC(C)(OC(=O)CC(C)C)C12 (stereo not drawn) [Compound 7] | 0.56 ± 0.044 ng/mL | 0.39 ± 0.058 ng/mL | 22.82 ± 2.67 ng/mL |  |  | 
C=C1C(=O)OC2C1CCC(C)=C1CCC(C)(OC(=O)CCl)C12 (stereo not drawn) [Compound 9] | 0.61 ± 0.065 ng/mL | 0.45 ± 0.064 ng/mL | 27.92 ± 2.67 ng/mL |  |  | 
O=C1O[C@H]2[C@@H](CCC3(CC3)[C@@H]3CCC4(CC4)[C@H]23)[C@@H]1CN1CCOCC1 [Compound 38] | 0.67 ± 0.045 ng/mL | 0.35 ± 0.062 ng/mL | 19.67 ± 3.14 ng/mL |  |  | 
C=C1C(=O)OC2C1CCC(C)=C1CCC(C)(OC(=O)CCCCBr)C12 (stereo not drawn) [Compound 12] | 0.66 ± 0.043 ng/mL | 0.38 ± 0.069 ng/mL | 24.59 ± 2.35 ng/mL |  |  | 
CCCCN(C)C[C@@H]1C(=O)O[C@H]2[C@H]1CCC1(CC1)[C@@H]1CCC3(CC3)[C@H]21 [Compound 41] | 0.45 ± 0.056 ng/mL | 0.41 ± 0.054 ng/mL | 26.63 ± 1.59 ng/mL |  |  | 
C=C1C(=O)OC2C1CCC(C)=C1CCC(C)(OC(=O)C=CC)C12 (stereo not drawn) [Compound 15] | 0.54 ± 0.045 ng/mL | 0.41 ± 0.051 ng/mL | 24.39 ± 2.38 ng/mL |  |  | 
O=C1O[C@H]2[C@@H](CCC3(CC3)[C@@H]3CCC4(CC4)[C@H]23)[C@@H]1Cn1cc(CCCCO)nn1 [Compound 42] | 0.58 ± 0.055 ng/mL | 0.36 ± 0.059 ng/mL | 22.58 ± 4.21 ng/mL |  |  | 
C=C1C(=O)OC2C1CCC(C)=C1CCC(C)(OC(=O)CC)C12 (stereo not drawn) [Compound 3] | 0.55 ± 0.042 ng/mL | 0.36 ± 0.039 ng/mL | 26.96 ± 1.59 ng/mL |  |  | 
C=C1C(=O)OC2C1CCC(C)=C1CCC(C)(OC(=O)C=Cc3ccccc3)C12 (stereo not drawn) [Compound 17] | 0.66 ± 0.077 ng/mL | 0.37 ± 0.065 ng/mL | 28.95 ± 3.24 ng/mL |  |  | 
O=C1O[C@H]2[C@@H](CCC3(CC3)[C@@H]3CCC4(CC4)[C@H]23)[C@@H]1CSCc1ccccc1 [Compound 32] | 0.64 ± 0.044 ng/mL | 0.37 ± 0.047 ng/mL | 22.75 ± 4.25 ng/mL |  |  | 
C=CCCC(=O)OC1(C)CCC2=C(C)CCC3C(=C)C(=O)OC3C21 (stereo not drawn) [Compound 18] | 0.64 ± 0.072 ng/mL | 0.39 ± 0.029 ng/mL | 20.62 ± 2.47 ng/mL |  |  | 
C=C1C(=O)OC2C1CCC(C)=C1CCC(C)(OC(=O)C(C)C)C12 (stereo not drawn) [Compound 6] | 0.61 ± 0.072 ng/mL | 0.36 ± 0.054 ng/mL | 26.75 ± 1.69 ng/mL |  |  | 
CN(CCO)C[C@@H]1C(=O)O[C@H]2[C@H]1CCC1(CC1)[C@@H]1CCC3(CC3)[C@H]21 [Compound 40] | 0.48 ± 0.078 ng/mL | 0.31 ± 0.061 ng/mL | 25.34 ± 3.57 ng/mL |  |  | 
COC(=O)c1cn(C[C@@H]2C(=O)O[C@H]3[C@H]2CCC2(CC2)[C@@H]2CCC4(CC4)[C@H]32)nn1 [Compound 44] | 0.54 ± 0.071 ng/mL | 0.35 ± 0.069 ng/mL | 22.14 ± 2.87 ng/mL |  |  | 
CC1CCN(C[C@@H]2C(=O)O[C@@H]3C4C(CCC45CC5)C4(CC[C@@H]23)CC4)CC1 (stereo partly drawn) [Compound 36] | 0.66 ± 0.045 ng/mL | 0.29 ± 0.064 ng/mL | 25.64 ± 2.14 ng/mL |  |  | 
C#CCCCC(=O)O[C@]1(C)CCC2=C(C)CC[C@H]3C(=C)C(=O)O[C@@H]3[C@H]21 [Compound 19] | 0.62 ± 0.056 ng/mL | 0.42 ± 0.091 ng/mL | 26.45 ± 5.21 ng/mL |  |  | 
CC(O)c1cn(C[C@@H]2C(=O)O[C@H]3[C@H]2CCC2(CC2)[C@@H]2CCC4(CC4)[C@H]32)nn1 (stereo partly drawn) [Compound 45] | 0.49 ± 0.056 ng/mL | 0.38 ± 0.039 ng/mL | 23.26 ± 3.49 ng/mL |  |  | 
C=C1C(=O)OC2C1CCC(C)=C1CCC(C)(OC(=O)C(Cl)Cl)C12 (stereo not drawn) [Compound 10] | 0.54 ± 0.055 ng/mL | 0.42 ± 0.069 ng/mL | 25.67 ± 7.12 ng/mL |  |  | 
CN1CCN(CC2C(=O)O[C@@H]3[C@@H]4[C@@H](CCC45CC5)C4(CC[C@@H]23)CC4)CC1 (stereo partly drawn) [Compound 37] | 0.59 ± 0.035 ng/mL | 0.31 ± 0.037 ng/mL | 27.94 ± 2.69 ng/mL |  |  | 
